{"source": "patent US6835382B2", "about": "“Ii peptide therapeutics to enhance antigen presentation” (University of Massachusetts, priority 1996, dated 2004)", "note": "Positions of bridges follow the written chain, without caps; N, C: chain ends. Non-standard residues stand in square brackets, D forms with d. No end group written: not given here. hArg = N=C(N)NCCCC[C@H](N)C(=O)O; Cit = NC(=O)NCCC[C@H](N)C(=O)O"}
{"biological_target": "T1, murine E^d MHC class II allele (Mus musculus, UniProt P01904+P01915)", "T1 sequence (P01904 26-255)": "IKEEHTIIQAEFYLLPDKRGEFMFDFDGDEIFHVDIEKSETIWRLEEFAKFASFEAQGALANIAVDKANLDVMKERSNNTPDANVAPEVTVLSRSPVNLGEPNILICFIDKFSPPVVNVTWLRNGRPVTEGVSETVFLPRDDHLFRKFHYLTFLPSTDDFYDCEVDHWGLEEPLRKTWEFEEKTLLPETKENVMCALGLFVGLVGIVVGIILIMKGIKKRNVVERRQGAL", "T1 sequence (P01915 27-264 limits assumed)": "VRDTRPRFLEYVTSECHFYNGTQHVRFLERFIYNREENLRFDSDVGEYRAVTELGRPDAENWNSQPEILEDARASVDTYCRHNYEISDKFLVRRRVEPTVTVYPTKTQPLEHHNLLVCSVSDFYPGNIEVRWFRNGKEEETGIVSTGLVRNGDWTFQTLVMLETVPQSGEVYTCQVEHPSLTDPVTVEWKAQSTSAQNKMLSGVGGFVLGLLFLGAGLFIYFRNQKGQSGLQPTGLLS", "test": "antigenic peptide prepulse assay, E^d allele (fixed APC prepulsed with HEL106-116)", "assay_type": "cell-based", "parameters": "The A20 and CH27 B cell lymphoma lines express H-2^d and H-2^k alleles, respectively; endogenous in cells; host or cells: A20 B cell lymphoma (mitomycin C-treated or paraformaldehyde-fixed)", "details": "Table 25; AE peptide 64 μM; prepulse 24 μM antigenic peptide; supernatant 1:4"}
{"substance": "Ac-A[Cit]NKNPK-NH2 [AE351]", "Activity in antigenic peptide prepulse assay, E^d (baseline = 1.00)": 0.42}
{"substance": "Ac-LR Orn K HArg PK-NH2 [AE340]", "Activity in antigenic peptide prepulse assay, E^d (baseline = 1.00)": 0.10}
{"substance": "Ac-LRMKNPF-NH2 [AE350]", "Activity in antigenic peptide prepulse assay, E^d (baseline = 1.00)": 0.82}
{"biological_target": "T1, murine E^d MHC class II allele", "test": "antigenic peptide prepulse assay, E^d allele (fixed APC prepulsed with HEL106-116)", "assay_type": "cell-based", "parameters": "The A20 and CH27 B cell lymphoma lines express H-2^d and H-2^k alleles, respectively; endogenous in cells; host or cells: A20 B cell lymphoma (mitomycin C-treated or paraformaldehyde-fixed)", "details": "Table 26; AE peptide 64 μM; prepulse 24 μM antigenic peptide; supernatant 1:2"}
{"substance": "Ac-FK HArg MYP Cit-NH2 [AE371]", "Activity in antigenic peptide prepulse assay, E^d (baseline = 1.0)": 0.90}
{"substance": "Ac-LKMKYPK-NH2 [AE362]", "Activity in antigenic peptide prepulse assay, E^d (baseline = 1.0)": 0.76}
{"substance": "Ac-LRLKYPN-NH2 [AE368]", "Activity in antigenic peptide prepulse assay, E^d (baseline = 1.0)": 0.55}
{"substance": "Ac-LK HArg KYPK-NH2 [AE363]", "Activity in antigenic peptide prepulse assay, E^d (baseline = 1.0)": 0.60}
{"substance": "Ac-LRMMYP[Cit]-NH2 [AE367]", "Activity in antigenic peptide prepulse assay, E^d (baseline = 1.0)": 1.10}
{"substance": "Ac-L[hArg]LKYPK-NH2 [AE361]", "Activity in antigenic peptide prepulse assay, E^d (baseline = 1.0)": 0.83}
{"substance": "Ac-LR HArg MYPK-NH2 [AE365]", "Activity in antigenic peptide prepulse assay, E^d (baseline = 1.0)": 0.70}
{"substance": "Ac-LRMKYPN-NH2 [AE370]", "Activity in antigenic peptide prepulse assay, E^d (baseline = 1.0)": 0.74}
{"substance": "Ac-LR HArg KYP Cit-NH2 [AE366]", "Activity in antigenic peptide prepulse assay, E^d (baseline = 1.0)": 0.44}
{"substance": "Ac-L[hArg]MKYPK-NH2 [AE360]", "Activity in antigenic peptide prepulse assay, E^d (baseline = 1.0)": 0.91}
{"substance": "Ac-LRMKYP[Cit]-NH2 [AE364]", "Activity in antigenic peptide prepulse assay, E^d (baseline = 1.0)": 0.34}
{"biological_target": "T1, murine E^d MHC class II allele", "test": "antigenic peptide prepulse assay, E^d allele (fixed APC prepulsed with HEL106-116)", "assay_type": "cell-based", "parameters": "The A20 and CH27 B cell lymphoma lines express H-2^d and H-2^k alleles, respectively; endogenous in cells; host or cells: A20 B cell lymphoma (mitomycin C-treated or paraformaldehyde-fixed)", "details": "Table 28; AE peptide 64 μM; prepulse 24 μM antigenic peptide; supernatant 1:4"}
{"substance": "Ac-LRMKLPK (lactam 4-C) [AE382]", "Activity in antigenic peptide prepulse assay, E^d (baseline = 1.0)": 0.52}
{"substance": "cyclic LRMKLPK (bridge (positions not given here); also: cyclic, ring type not given here) [AE381, “head-to-tail” cyclization from the amino-terminus to the carboxyl-terminus of AE114]", "Activity in antigenic peptide prepulse assay, E^d (baseline = 1.0)": 0.19}
